PubChem BioAssay (NCI)
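Here, GI50 denotes the concentration required for 50% inhibition of growth. TGI is the concentration that stops growth completely.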

Tests used:
Experiment in all cases: NCI tumour cell line growth inhibition, 384-well format
[1] = test system: 786-0 renal
[2] = test system: EKVX NSCLC
[3] = test system: SK-OV-3 ovarian
[4] = test system: SN12C renal
[5] = test system: NCI/ADR-RES ovarian
[6] = test system: BT-549 breast
[7] = test system: HCT-15 colon
[8] = test system: KM12 colon
[9] = test system: ACHN renal
[10] = test system: SF-539 CNS
[11] = test system: OVCAR-3 ovarian
[12] = test system: HT29 colon
[13] = test system: SK-MEL-5 melanoma
[14] = test system: SNB-75 CNS
[15] = test system: OVCAR-8 ovarian
[16] = test system: TK-10 renal
[17] = test system: NCI-H23 lung
[18] = test system: UO-31 renal
[19] = test system: T-47D breast
[20] = test system: SNB-19 CNS
[21] = test system: SW-620 colon
[22] = test system: PC-3 prostate
[23] = test system: MOLT-4 leukemia
[24] = test system: SK-MEL-28 melanoma
[25] = test system: MDA-MB-231 breast
[26] = test system: MDA-MB-468 breast
[27] = test system: NCI-H322M lung
[28] = test system: U251 glioblastoma
[29] = test system: HOP-92 NSCLC
[30] = test system: DU-145 prostate
[31] = test system: OVCAR-4 ovarian
[32] = test system: CAKI-1 renal
[33] = test system: RPMI-8226 leukemia
[34] = test system: HCT-116 colon
[35] = test system: HS 578T breast
[36] = test system: SF-268 CNS
[37] = test system: NCI-H460 NSCLC
[38] = test system: A549 NSCLC
[39] = test system: HOP-62 NSCLC
[40] = test system: MALME-3M melanoma
[41] = test system: NCI-H522 lung
[42] = test system: HL-60(TB) leukemia
[43] = test system: A498 renal
[44] = test system: OVCAR-5 ovarian
[45] = test system: UACC-257 melanoma
[46] = test system: M14 melanoma
[47] = test system: COLO 205 colon
[48] = test system: IGROV1 ovarian
[49] = test system: HCC-2998 colon
[50] = test system: RXF 393 renal
[51] = test system: CCRF-CEM leukemia
[52] = test system: MCF7 breast
[53] = test system: UACC-62 melanoma
[54] = test system: SF-295 CNS
[55] = test system: NCI-H226 lung
[56] = test system: MDA-MB-435 melanoma
[57] = test system: K-562 leukemia
[58] = test system: LOX IMVI melanoma
[59] = test system: SR leukemia

CN1CCN(c2ccc(C(=O)Nc3cc(-c4cccc(NS(=O)(=O)c5ccccc5)c4)[nH]n3)cc2)CC1
GI50 [1]: 1.56 µM
TGI [1]: 2.98 µM
GI50 [2]: 2.1 µM
TGI [2]: 4.87 µM
GI50 [3]: 1.16 µM
TGI [3]: 2.44 µM
GI50 [4]: 2.44 µM
TGI [4]: 8.74 µM
GI50 [5]: > 100 µM
TGI [5]: > 100 µM
GI50 [6]: 1.17 µM
TGI [6]: 2.42 µM
GI50 [7]: 3.5 µM
TGI [7]: 8.85 µM
GI50 [8]: 0.025 µM
TGI [8]: 1.38 µM
GI50 [9]: 2.15 µM
TGI [9]: 4.66 µM
GI50 [10]: 0.838 µM
TGI [10]: 2.11 µM
GI50 [11]: 1.62 µM
TGI [11]: 3.03 µM
GI50 [12]: 1.52 µM
TGI [12]: 2.93 µM
GI50 [13]: 1.46 µM
TGI [13]: 2.79 µM
GI50 [14]: 0.949 µM
TGI [14]: 2.37 µM
GI50 [15]: 1.81 µM
TGI [15]: 3.35 µM
GI50 [16]: 2.27 µM
TGI [16]: 4.56 µM
GI50 [17]: 1.91 µM
TGI [17]: 3.75 µM
GI50 [18]: 3.69 µM
TGI [18]: 10.4 µM
GI50 [19]: 1.37 µM
TGI [19]: 2.69 µM
GI50 [20]: 2.02 µM
TGI [20]: 4.48 µM
GI50 [21]: 1.84 µM
TGI [21]: 3.33 µM
GI50 [22]: 2.57 µM
TGI [22]: 7.41 µM
GI50 [23]: 1.2 µM
TGI [23]: 2.44 µM
GI50 [24]: 2.17 µM
TGI [24]: 3.63 µM
GI50 [25]: 1.52 µM
TGI [25]: 3.3 µM
GI50 [26]: 2.09 µM
TGI [26]: 3.62 µM
GI50 [27]: 1.93 µM
TGI [27]: 4.22 µM
GI50 [28]: 1.64 µM
TGI [28]: 3.03 µM
GI50 [29]: 1.37 µM
TGI [29]: 2.87 µM
GI50 [30]: 2.33 µM
TGI [30]: 4.97 µM
GI50 [31]: 1.79 µM
TGI [31]: 4.07 µM
GI50 [32]: 1.67 µM
TGI [32]: 3.08 µM
GI50 [33]: 1.45 µM
TGI [33]: 2.78 µM
GI50 [34]: 1.66 µM
TGI [34]: 3.08 µM
GI50 [35]: 1.31 µM
TGI [35]: 2.6 µM
GI50 [36]: 1.23 µM
TGI [36]: 2.7 µM
GI50 [37]: 1.69 µM
TGI [37]: 3.15 µM
GI50 [38]: 1.78 µM
TGI [38]: 3.3 µM
GI50 [39]: 1.59 µM
TGI [39]: 3.31 µM
GI50 [40]: 1.64 µM
TGI [40]: 3.01 µM
GI50 [41]: 1.88 µM
TGI [41]: 3.55 µM
GI50 [42]: 2.48 µM
TGI [42]: 3.96 µM
GI50 [43]: 2.07 µM
TGI [43]: 3.53 µM
GI50 [44]: 1.89 µM
TGI [44]: 3.94 µM
GI50 [45]: 1.78 µM
TGI [45]: 3.18 µM
GI50 [46]: 1.65 µM
TGI [46]: 3.03 µM
GI50 [47]: 0.891 µM
TGI [47]: 2.14 µM
GI50 [48]: 0.628 µM
TGI [48]: 1.93 µM
GI50 [49]: 1.47 µM
TGI [49]: 3.01 µM
GI50 [50]: 1.24 µM
TGI [50]: 2.52 µM
GI50 [51]: 1.62 µM
TGI [51]: 2.99 µM
GI50 [52]: 1.41 µM
TGI [52]: 2.92 µM
GI50 [53]: 1.8 µM
TGI [53]: 3.2 µM
GI50 [54]: 1.89 µM
TGI [54]: 3.4 µM
GI50 [55]: 0.111 µM
TGI [55]: 11.6 µM
GI50 [56]: 1.96 µM
TGI [56]: 3.41 µM
GI50 [57]: 1.45 µM
TGI [57]: 2.79 µM
GI50 [58]: 1.62 µM
TGI [58]: 3.01 µM

NC1CCC(N[C@@H]2C[C@H]2c2ccccc2)CC1 (some centres not stated)
GI50 [1]: 33.4 µM
TGI [1]: > 100 µM
GI50 [2]: 40.2 µM
TGI [2]: > 100 µM
GI50 [3]: > 100 µM
TGI [3]: > 100 µM
GI50 [4]: > 100 µM
TGI [4]: > 100 µM
GI50 [5]: > 100 µM
TGI [5]: > 100 µM
GI50 [6]: 46.2 µM
TGI [6]: > 100 µM
GI50 [7]: 34.1 µM
TGI [7]: > 100 µM
GI50 [8]: 61.9 µM
TGI [8]: > 100 µM
GI50 [9]: > 100 µM
TGI [9]: > 100 µM
GI50 [10]: 23.4 µM
TGI [10]: 64.1 µM
GI50 [11]: 25 µM
TGI [11]: > 100 µM
GI50 [12]: 20 µM
TGI [12]: 43.7 µM
GI50 [13]: 41.4 µM
TGI [13]: > 100 µM
GI50 [14]: > 100 µM
TGI [14]: > 100 µM
GI50 [15]: 49.4 µM
TGI [15]: > 100 µM
GI50 [16]: > 100 µM
TGI [16]: > 100 µM
GI50 [17]: 71.2 µM
TGI [17]: > 100 µM
GI50 [18]: 32.5 µM
TGI [18]: > 100 µM
GI50 [19]: > 100 µM
TGI [19]: > 100 µM
GI50 [20]: > 100 µM
TGI [20]: > 100 µM
GI50 [59]: 6.76 µM
TGI [59]: 18.6 µM
GI50 [21]: > 100 µM
TGI [21]: > 100 µM
GI50 [22]: 64.7 µM
TGI [22]: > 100 µM
GI50 [23]: 24 µM
TGI [23]: 77.8 µM
GI50 [24]: 32.2 µM
TGI [24]: > 100 µM
GI50 [25]: 90.5 µM
TGI [25]: > 100 µM
GI50 [26]: 58.9 µM
TGI [26]: > 100 µM
GI50 [27]: 86.4 µM
TGI [27]: > 100 µM
GI50 [28]: 44.4 µM
TGI [28]: > 100 µM
GI50 [29]: 35.9 µM
TGI [29]: > 100 µM
GI50 [30]: 87.1 µM
TGI [30]: > 100 µM
GI50 [31]: > 100 µM
TGI [31]: > 100 µM
GI50 [32]: 35.2 µM
TGI [32]: > 100 µM
GI50 [33]: 41.5 µM
TGI [33]: > 100 µM
GI50 [34]: 41.6 µM
TGI [34]: > 100 µM
GI50 [35]: 37.5 µM
TGI [35]: > 100 µM
GI50 [36]: 76.2 µM
TGI [36]: > 100 µM
GI50 [37]: 77 µM
TGI [37]: > 100 µM
GI50 [38]: > 100 µM
TGI [38]: > 100 µM
GI50 [39]: 66.9 µM
TGI [39]: > 100 µM
GI50 [40]: 21 µM
TGI [40]: 47.3 µM
GI50 [41]: 94.1 µM
TGI [41]: > 100 µM
GI50 [42]: 10.2 µM
TGI [42]: 28.9 µM
GI50 [43]: 28.3 µM
TGI [43]: > 100 µM
GI50 [45]: 17.5 µM
TGI [45]: 33.1 µM
GI50 [46]: 20.9 µM
TGI [46]: 40.2 µM
GI50 [47]: 66.7 µM
TGI [47]: > 100 µM
GI50 [48]: 48.8 µM
TGI [48]: > 100 µM
GI50 [49]: 40.1 µM
TGI [49]: > 100 µM
GI50 [50]: 32.1 µM
TGI [50]: > 100 µM
GI50 [51]: 31.5 µM
TGI [51]: > 100 µM
GI50 [52]: > 100 µM
TGI [52]: > 100 µM
GI50 [53]: 19.4 µM
TGI [53]: 38.2 µM
GI50 [54]: > 100 µM
TGI [54]: > 100 µM
GI50 [55]: > 100 µM
TGI [55]: > 100 µM
GI50 [56]: 38.1 µM
TGI [56]: > 100 µM
GI50 [57]: 31.4 µM
TGI [57]: > 100 µM
GI50 [58]: 36.2 µM
TGI [58]: > 100 µM
